# Measurements reported in patent publication US20200038478A1, “POLYPEPTIDE AND COMPOSITION THEREOF FOR TREATING DISEASES OF METABOLIC SYSTEM” (WUHAN GRECTECH CO., LTD., priority 2017, published 2020).
# Structures can show the parent of a compound that is named as a salt.
# Columns and labels:
# [1] = tested on: mouse models of type 2 diabetes; assay: Insulin tolerance test after 4-week treatment (Example 20); type: in vivo, KK mice; conditions: insulin 0.5 U/mL at 0.05 ml/10 g s.c. one hour after last dose of 4-week gavage treatment
# [2] = tested on: mouse models of type 2 diabetes; assay: Oral glucose tolerance test after 4-week treatment (Example 20); type: in vivo, KK mice; conditions: glucose 2.5 g/kg by gavage one hour after last dose of 4-week gavage treatment
# Procedure: 2.4 Oral glucose tolerance test: one hour after the last administration, the remaining mice in the diabetic model control group, metformin treatment group, polypeptide treatment group and normal control group (10 mice in each group) after the selection in experiment 2.3 were administered by gavage with glucose at a dose of 2.5 g/kg.
# [3] = tested on: mouse models of type 2 diabetes; assay: Pancreas weight, H&E staining and immunohistochemistry after 4-week treatment (Example 20); type: in vivo; conditions: KK mice sacrificed after treatment for four weeks by gavage
# Description: 2.5 All mice were sacrificed after treatment for four weeks, and the pancreatic tissues were weighed, stained with H&E and detected by immunohistochemistry.
# [4] = tested on: mouse models of type 2 diabetes; assay: Hypoglycemic activity of solid compositions, STZ/high-fat diet diabetic mice, gavage 4 weeks (Example 24); type: in vivo; conditions: fasting; STZ + high-fat diet C57BL/6 mice; gavage once a day; compositions 2 mg/mL polypeptide O, metformin 20 mg/mL (100 mg/Kg), each 0.05 ml/10 g
# Procedure: Male C57BL/6 mice at 4 weeks of age, after adapting to the environment for 5 days, were randomly divided into normal control group (10 mice) and model-to-be established groups (90 mice). The mice in the normal control group were fed with normal diet. The mice in the model-to-be established groups were fed with high-fat diet and intraperitoneally injected with streptozotocin (STZ) in citrate buffer at a dose of 45 mg/kg. After injection, the mice were fasted for 1.5 hours and injected for 5 consecutive days, and then the diabetic mouse model was established. […] The mice with the fasting blood glucouse level between 10.0 and 20.0 mmol/L and at the same time having polydipsia and polyuria were selected out as the diabetic mice. Then, the selected diabetic mice were randomly divided into five groups: model control group, metformin group, Composition D group, […], and […], 10 mice in each group. The mice were administered by gavage with the corresponding drug: normal saline (100 μL for each mouse), metformin (0.05 ml/10 g), composition D (0.05 ml/10 g), composition E (0.05 ml/10 g) and composition F (0.05 ml/10 g), respectively, once a day for 4 weeks. The mice in normal control group were administered with normal saline (100 μL for each mouse). The diabetic mice were fed with high-fat diet continuously and drank water freely, and the mice in normal control group were fed with normal diet and drank water freely.
# diabetic mice [5] = assay: Fasting blood glucose in STZ diabetic mice, intragastric 4 weeks (Example 25); type: in vivo, BALB/c mice
# Procedure: (§1) Male BALB/c mice at 7 weeks of age, after adapting to the environment for 2 days, were randomly divided into normal control group (10 mice) and model-to-be established groups (70 mice). The mice in the normal control group were fed with normal diet. The mice in the model-to-be established groups were fed with high-fat diet, intraperitoneally injected with streptozotocin (STZ) in citrate buffer at a dose of 100 mg/kg, and then the diabetic mouse model was established. […] The mice with the blood glucouse level higher than 11.0 mmol/L and at the same time having polydipsia and polyuria were selected out as the diabetic mice. Then the selected diabetic mice were randomly divided into four groups: model control group, metformin group, Composition E group and Composition F group, 10 mice in each group. The mice were intragastric administered with the corresponding drugs: normal saline (100 μL for each mouse), metformin (0.05 ml/10 g), Composition E (0.05 ml/10 g) and Composition F (0.05 ml/10 g), respectively, once a day for 4 weeks. The mice in normal control group were administered with normal saline (100 μL for each mouse). The diabetic mice were fed with high-fat diet continuously and drank water freely, and the mice in normal control group were fed with normal diet and drank water freely.
# diabetic mice [6] = assay: Serum TC and TG in STZ diabetic mice after 4 weeks (Example 25); type: in vivo; conditions: after 4 weeks intragastric treatment, STZ + high-fat diet BALB/c mice
# Procedure: as §1, with “The diabetic mice were fed with high-fat diet continuously and drank water freely, and the mice in normal control group were fed with normal diet and drank water freely.” left out
# After the end of experiment, blood samples were collected from the eyeballs of the mice, serum was separated and the serum levels of TC and TG were detected.
# [7] = tested on: mouse models of type 2 diabetes; assay: Blood glucose during 4-week gavage treatment, polypeptide mixture vs metformin (Example 20); conditions: KK mice, metformin 20 mg/mL, each 0.05 ml/10 g
# [8] = tested on: mouse models of type 2 diabetes; assay: Polypeptide mixture vs metformin, mouse models of type 2 diabetes, single gavage (Example 17); conditions: KK mice, polypeptide 2 mg/mL, metformin 20 mg/mL, each 0.05 ml/10 g
# [9] = fasting, STZ (100 mg/kg) + high-fat diet BALB/c mice, intragastric once a day, compositions 2 mg/mL polypeptide O, metformin 200 mg/mL (1000 mg/kg), each 0.05 ml/10 g
# [10] = gavage once a day, polypeptide tablet suspension 2 mg/ml
compound,measurement,setting,value
"CN(C)C(=N)N=C(N)N [Metformin, Metformin hydrochloride]",0 min blood glucose level,[1],6.8 ± 0.8 mmol/L
same,30 min blood glucose level,[1],4.1 ± 1.1 mmol/L
same,60 min blood glucose level,[1],4.8 ± 1.2 mmol/L
same,90 min blood glucose level,[1],5.4 ± 0.7 mmol/L
same,120 min blood glucose level,[1],6.2 ± 1.3 mmol/L
same,0 min blood glucose level,[2],6.8 ± 0.8 mmol/L
same,30 min blood glucose level,[2],16.8 ± 4.1 mmol/L
same,60 min blood glucose level,[2],13.4 ± 2.4 mmol/L
same,90 min blood glucose level,[2],10.6 ± 3.2 mmol/L
same,120 min blood glucose level,[2],8.2 ± 1.7 mmol/L
same,Pancreas weight/body weight (%),[3],1.32 ± 0.06%
same,Blood glucose level after four weeks,[4],9.2 ± 0.9 mmol/L
same,Blood glucose level after one week,[4],11.9 ± 0.6 mmol/L
same,Blood glucose level after three weeks,[4],11.3 ± 1.2 mmol/L
same,Blood glucose level after two weeks,[4],13.2 ± 0.5 mmol/L
same,Blood glucose level after four weeks,diabetic mice [5]; [9],8.0 ± 0.7 mmol/L
same,Blood glucose level after one week,diabetic mice [5]; [9],12.6 ± 0.7 mmol/L
same,Blood glucose level after three weeks,diabetic mice [5]; [9],12.3 ± 1.0 mmol/L
same,Blood glucose level after two weeks,diabetic mice [5]; [9],13.5 ± 0.7 mmol/L
same,control of blood glucose (conclusion),diabetic mice [5]; metformin at ultra-high-dose 1000 mg/kg,could not control blood glucose effectively
same,TC,diabetic mice [6],2.32 ± 0.78 mmol/L
same,TG,diabetic mice [6],1.87 ± 1.26 mmol/L
same,Initial blood glucose level,"[7]; gavage once a day for 4 weeks, polypeptide tablets (mixture:hydroxypropyl methylcellulose 8:2) suspension 2 mg/ml, baseline",9.3 ± 1.1 mmol/L
same,Blood glucose level after four weeks,[7]; [10],6.8 ± 0.8 mmol/L
same,Blood glucose level after one week,[7]; [10],8.1 ± 1.1 mmol/L
same,Blood glucose level after three weeks,[7]; [10],7.3 ± 1.2 mmol/L
same,Blood glucose level after two weeks,[7]; [10],7.2 ± 0.9 mmol/L
same,Blood glucose level at 15 min after administration,[8],12.6 ± 1.2 mmol/L
same,Blood glucose level at 30 min after administration,[8],10.4 ± 0.9 mmol/L
same,Blood glucose level at 45 min after administration,[8],9.3 ± 0.8 mmol/L
same,Blood glucose level at 60 min after administration,[8],8.2 ± 0.5 mmol/L
same,Blood glucose level prior to administration,[8]; baseline,14.2 ± 1.1 mmol/L
